According to EP2604265A1, “P2x7 antagonists as frontline or adjunctive treatment against status epilepticus” (Royal College of Surgeons in Ireland (RCSI), priority 2011, dated 2013):

Key:
[1] = tested on: Adult male C57BL/6 mice; test: Intra-amygdala KA-induced SE in mice, EEG, drug i.c.v. immediately prior to KA; assay type: in vivo; conditions: i.c.v. co-injection immediately prior to intra-amygdala KA; vs vehicle (antibody vs control IgG); lorazepam at 40 min
Experimental: (§1) Adult male C57BL/6 mice (20-25 g) were obtained from Harlan UK (Blackthorn, UK). Mice were first anesthetized using isoflurane (3-5%) and maintained normothermic by means of a feedback-controlled heat blanket (Harvard Apparatus Ltd, Kent, UK). Mice were next placed in a stereotaxic frame and three partial craniectomies performed to affix cortical skull-mounted EEG electrodes (Bilaney Consultants Ltd, Sevenoaks, UK). EEG was recorded using a Grass Comet XL digital EEG (Medivent Ltd, Lucan, Ireland). A guide cannula was affixed (coordinates from Bregma: AP = 0.94; L = 2.85 mm) and the assembly fixed in place with dental cement. Anesthesia was then discontinued and freely moving mice were placed inside a clear perspex recording chamber. EEG recordings were commenced and after establishing baseline EEG for a few minutes, an injection cannula was lowered through the guide cannula for injection of kainic acid (KA) (Ocean Produce International, Nova Scotia, Canada) into the basolateral amygdala nucleus (0.3 µg in 0.2 µl phosphate-buffered saline). Non-seizure control mice underwent the same surgical procedure but received 0.2 µl intra-amygdala vehicle. Mice were killed at different time-points (1, 4, 8 or 24 h) later and perfused with saline to remove intravascular blood components. Brains were either flash-frozen whole in 2-methylbutane at 30°C or perfused with 4% PFA for histopathology, or dissected on ice to obtain whole hippocampus or microdissected to obtain the different hippocampal subfields (CA1, DG and CA3).
Digitized EEG recordings were analyzed off-line using manual assessment and automated software. […] The duration of high-frequency (>5 Hz) high-amplitude (>2× baseline) polyspike discharges of ≥5 s duration (HAHFDs) was counted by a reviewer blind to treatment. Further EEG analysis was performed by uploading EEG into Labchart7 software (ADInstruments) to calculate the power spectral density (total power, a measure of the input signal's power (amplitude) over frequency) EEG spectrogram (spectral power against frequency and time).
All the following drugs were purchased from Sigma-Aldrich Ireland (Arklow, Ireland) and delivered by intracerebroventricular (i.c.v.) microinjection in 2 µl volume unless otherwise specified: Adenosine 5'-triphosphate (ATP) at 100 µM, Uridine-5'-triphosphate (UTP) at 100 µM, Uridine-5'-diphosphate (UDP) at 100 µM, 2-chloro-N6-cyclopentyladenosine (CCPA) 300 nM, Pyridoxal-phosphate-6-azophenyl-2,4-disulfonate (PPADS) at 50 µM, α,β- methylene- adenosine-5-triphosphate (α,β-meATP) at 0.1 nmol, 3-O-(4-benzoyl)benzyl-ATP (Bz-ATP) at 300 µM, Brillant Blue G (BBG) at 30 nM.
Lorazepam (Ativan®, Wyeth, Taplow, U.K.) (6 mg/kg) was administered intraperitoneally (i.p.) at 40 or 60 min after KA.
Next, a model of focal-onset SE was used to evaluate the contributions of ATP-gated receptors in vivo. Mice received intra-amygdala microinjection of KA to induce SE (Fig. 2C). […] The electroencephalogram (EEG) was recorded by using cranial electrodes (lower part of Fig. 2C). Seizures were curtailed after 40 min by the injection of lorazepam to minimize morbidity and mortality.

[2] = tested on: microglia; test: Iba-1 immunostaining, activated microglia counts in CA3 after SE; assay type: in vivo, mice; conditions: CA3, 24 h after SE; vs vehicle
Experimental: as §1, with “Brains were either flash-frozen whole in 2-methylbutane at 30°C or perfused with 4% PFA for histopathology, or dissected on ice to obtain whole hippocampus or microdissected to obtain the different hippocampal subfields (CA1, DG and CA3).” left out

[3] = tested on: Adult male C57BL/6 mice; test: Histopathology of ipsilateral hippocampal CA3 after SE (FJB and NeuN counts); assay type: in vivo; conditions: 24 h after SE, vs vehicle; for Counts of surviving CA3 neurons (NeuN) / FJB-positive cells within the CA3 subfield (neuronal death): drug given prior to SE
Experimental: as §1
Flash-frozen brains in 2-methylbutane were sectioned at -20°C on a Leica cryostat and 12 µm sections collected at the level of dorsal hippocampus (-1.8 mm and - 2.9 mm from Bregma according to a mouse stereotaxic atlas (Paxinos and Franklin, 2001). Neuronal death was assessed using Fluoro-Jade B (FJB) staining, as previously described (Engel et al., 2010; Murphy et al., 2010). Briefly, sections were air-dried and post-fixed in formalin followed by hydrating through graded alcohols. Sections were then rinsed in distilled water and transferred to 0.006% potassium permanganate solution for 15 min. Sections were rinsed again and transferred to a 0.001% FJB solution according to manufacturer's recommendations (Chemicon Europe Ltd, Chandlers Ford, UK). After staining, sections were mounted in DPX (Sigma-Aldrich). For NeuN immunohistochemistry, sections were fixed and permeabilized, blocked in goat serum and incubated overnight with anti-NeuN antibodies (Millipore Ireland B.V., Tullagreen, Ireland) followed by incubation with goat anti-rabbit IgG antibodies coupled to AlexaFluor 568 (BioSciences Limited, Dun Laoghaire, Ireland). Sections were examined using a Nikon 2000s epifluorescence microscope under Ex/Em wavelengths of 472/520 nm (green) and 540 to 580/600 to 660 nm (red) and images captured using a Hamamatsu Orca 285 camera. Cell counts were the average of two adjacent sections for the CA3 subfield under 40x lens magnification by an observer blinded to treatment.

SMILES | seizure time during SE (duration of HAHFDs) [1] | Reactive microglia (Iba-1) [2] | Counts of surviving CA3 neurons (NeuN) [3] | FJB-positive cells within the CA3 subfield (neuronal death) [3] | FJB-positive cells in CA3 ([3]; injected 15 min after KA) | NeuN-positive cells in CA3 ([3]; injected 15 min after KA)
CCOc1ccc(Nc2ccc(C(=C3C=CC(=[N+](CC)Cc4cccc(S(=O)(=O)[O-])c4)C=C3C)c3ccc(N(CC)Cc4cccc(S(=O)(=O)O)c4)cc3C)cc2)cc1 [BBG, Brilliant Blue G] | significantly reduced seizure time | significantly reduced | significantly higher | significantly less damage |  | 
Cl.Clc1cccc(-c2nnnn2Cc2cccnc2)c1Cl [A-438079, 3-[[5-(2,3-Dichlorophenyl)-1H-tetrazol-1-yl]methyl]pyridine hydrochloride] | significantly reduced seizure time | significantly reduced | significantly higher | protect the hippocampus against SE-induced neuronal death | significantly fewer | significantly more
